{"source": "the supplement of paper PMC10307832", "assay_in_all_cases": "relative viability (nuclei count vs DMSO), 5 days (fraction); higher = more cells survive", "key": {"A-427": {"system": "A-427", "summary_of_the_method": "(§1)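 Relative viability is defined as nuclei in treated wells over nuclei in vehicle wells. Duplicate plates were run and medians reported. Lung cancer cell lines in 1536-well plates were dosed by pin tool one day after seeding, with one drug or with a fixed anchor-drug dose plus five library-drug doses (not always all listed) in √10 steps, and nuclei were counted after 5 days.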"}, "HCC-15": {"system": "HCC-15", "summary_of_the_method": "as §1"}, "HCC-78": {"system": "HCC-78", "summary_of_the_method": "as §1"}, "HOP-62": {"system": "HOP-62", "summary_of_the_method": "as §1"}, "LC-2-ad": {"system": "LC-2-ad", "summary_of_the_method": "as §1"}, "LXF-289": {"system": "LXF-289", "summary_of_the_method": "as §1"}, "NCI-H1734": {"system": "NCI-H1734", "summary_of_the_method": "as §1"}, "NCI-H1755": {"system": "NCI-H1755", "summary_of_the_method": "as §1"}, "NCI-H1792": {"system": "NCI-H1792", "summary_of_the_method": "as §1"}, "NCI-H1915": {"system": "NCI-H1915", "summary_of_the_method": "as §1"}, "NCI-H1975": {"system": "NCI-H1975", "summary_of_the_method": "as §1"}, "NCI-H2126": {"system": "NCI-H2126", "summary_of_the_method": "as §1"}, "NCI-H2228": {"system": "NCI-H2228", "summary_of_the_method": "as §1"}, "NCI-H2347": {"system": "NCI-H2347", "summary_of_the_method": "as §1"}, "NCI-H647": {"system": "NCI-H647", "summary_of_the_method": "as §1"}, "PC-3 [JPC-3]": {"system": "PC-3 [JPC-3]", "summary_of_the_method": "as §1"}, "RERF-LC-KJ": {"system": "RERF-LC-KJ", "summary_of_the_method": "as §1"}, "SK-LU-1": {"system": "SK-LU-1", "summary_of_the_method": "as §1"}, "SW 1573": {"system": "SW 1573", "summary_of_the_method": "as §1"}}}
{"smiles": "COc1nc(C)cnc1NS(=O)(=O)c1cccnc1-c1ccc(-c2nnco2)cc1", "note": "[Zibotentan] + CC1(C)CCC(c2ccc(Cl)cc2)=C(CN2CCN(c3ccc(C(=O)NS(=O)(=O)c4ccc(N[C@H](CCN5CCOCC5)CSc5ccccc5)c(S(=O)(=O)C(F)(F)F)c4)cc3)CC2)C1 [Navitoclax] (partner 0.5 µM)", "values": [{"measurement": "relative viability", "setting": "A-427; first compound 0.08 µM", "result": 0.943}, {"measurement": "relative viability", "setting": "A-427; first compound 0.253 µM", "result": 0.978}, {"measurement": "relative viability", "setting": "A-427; first compound 0.8 µM", "result": 0.978}, {"measurement": "relative viability", "setting": "A-427; first compound 2.53 µM", "result": 0.995}, {"measurement": "relative viability", "setting": "HCC-15; first compound 0.08 µM", "result": 0.648}, {"measurement": "relative viability", "setting": "HCC-15; first compound 0.253 µM", "result": 0.656}, {"measurement": "relative viability", "setting": "HCC-15; first compound 0.8 µM", "result": 0.765}, {"measurement": "relative viability", "setting": "HCC-15; first compound 2.53 µM", "result": 0.698}, {"measurement": "relative viability", "setting": "HCC-78; first compound 0.08 µM", "result": 0.859}, {"measurement": "relative viability", "setting": "HCC-78; first compound 0.253 µM", "result": 0.687}, {"measurement": "relative viability", "setting": "HCC-78; first compound 0.8 µM", "result": 0.664}, {"measurement": "relative viability", "setting": "HCC-78; first compound 2.53 µM", "result": 0.764}, {"measurement": "relative viability", "setting": "HOP-62; first compound 0.08 µM", "result": 1.06}, {"measurement": "relative viability", "setting": "HOP-62; first compound 0.253 µM", "result": 1.08}, {"measurement": "relative viability", "setting": "HOP-62; first compound 0.8 µM", "result": 0.99}, {"measurement": "relative viability", "setting": "HOP-62; first compound 2.53 µM", "result": 1}, {"measurement": "relative viability", "setting": "LC-2-ad; first compound 0.08 µM", "result": 0.36}, {"measurement": "relative viability", "setting": "LC-2-ad; first compound 0.253 µM", "result": 0.386}, {"measurement": "relative viability", "setting": "LC-2-ad; first compound 0.8 µM", "result": 0.533}, {"measurement": "relative viability", "setting": "LC-2-ad; first compound 2.53 µM", "result": 0.516}, {"measurement": "relative viability", "setting": "LXF-289; first compound 0.08 µM", "result": 0.96}, {"measurement": "relative viability", "setting": "LXF-289; first compound 0.253 µM", "result": 0.945}, {"measurement": "relative viability", "setting": "LXF-289; first compound 0.8 µM", "result": 0.938}, {"measurement": "relative viability", "setting": "LXF-289; first compound 2.53 µM", "result": 0.968}, {"measurement": "relative viability", "setting": "NCI-H1734; first compound 0.08 µM", "result": 0.906}, {"measurement": "relative viability", "setting": "NCI-H1734; first compound 0.253 µM", "result": 0.881}, {"measurement": "relative viability", "setting": "NCI-H1734; first compound 0.8 µM", "result": 0.822}, {"measurement": "relative viability", "setting": "NCI-H1734; first compound 2.53 µM", "result": 0.897}, {"measurement": "relative viability", "setting": "NCI-H1755; first compound 0.08 µM", "result": 1.01}, {"measurement": "relative viability", "setting": "NCI-H1755; first compound 0.253 µM", "result": 0.99}, {"measurement": "relative viability", "setting": "NCI-H1755; first compound 0.8 µM", "result": 1}, {"measurement": "relative viability", "setting": "NCI-H1755; first compound 2.53 µM", "result": 1.02}, {"measurement": "relative viability", "setting": "NCI-H1792; first compound 0.08 µM", "result": 0.597}, {"measurement": "relative viability", "setting": "NCI-H1792; first compound 0.253 µM", "result": 0.605}, {"measurement": "relative viability", "setting": "NCI-H1792; first compound 0.8 µM", "result": 0.588}, {"measurement": "relative viability", "setting": "NCI-H1792; first compound 2.53 µM", "result": 0.604}, {"measurement": "relative viability", "setting": "NCI-H1915; first compound 0.08 µM", "result": 0.732}, {"measurement": "relative viability", "setting": "NCI-H1915; first compound 0.253 µM", "result": 0.79}, {"measurement": "relative viability", "setting": "NCI-H1915; first compound 0.8 µM", "result": 0.805}, {"measurement": "relative viability", "setting": "NCI-H1915; first compound 2.53 µM", "result": 0.797}, {"measurement": "relative viability", "setting": "NCI-H1975; first compound 0.08 µM", "result": 1.13}, {"measurement": "relative viability", "setting": "NCI-H1975; first compound 0.253 µM", "result": 1.05}, {"measurement": "relative viability", "setting": "NCI-H1975; first compound 0.8 µM", "result": 1.05}, {"measurement": "relative viability", "setting": "NCI-H1975; first compound 2.53 µM", "result": 1.02}, {"measurement": "relative viability", "setting": "NCI-H2126; first compound 0.08 µM", "result": 0.876}, {"measurement": "relative viability", "setting": "NCI-H2126; first compound 0.253 µM", "result": 0.796}, {"measurement": "relative viability", "setting": "NCI-H2126; first compound 0.8 µM", "result": 0.724}, {"measurement": "relative viability", "setting": "NCI-H2126; first compound 2.53 µM", "result": 0.883}, {"measurement": "relative viability", "setting": "NCI-H2228; first compound 0.08 µM", "result": 0.942}, {"measurement": "relative viability", "setting": "NCI-H2228; first compound 0.253 µM", "result": 0.85}, {"measurement": "relative viability", "setting": "NCI-H2228; first compound 0.8 µM", "result": 0.685}, {"measurement": "relative viability", "setting": "NCI-H2228; first compound 2.53 µM", "result": 1.44}, {"measurement": "relative viability", "setting": "NCI-H2347; first compound 0.08 µM", "result": 0.746}, {"measurement": "relative viability", "setting": "NCI-H2347; first compound 0.253 µM", "result": 0.776}, {"measurement": "relative viability", "setting": "NCI-H2347; first compound 0.8 µM", "result": 0.741}, {"measurement": "relative viability", "setting": "NCI-H2347; first compound 2.53 µM", "result": 0.77}, {"measurement": "relative viability", "setting": "NCI-H647; first compound 0.08 µM", "result": 1.34}, {"measurement": "relative viability", "setting": "NCI-H647; first compound 0.253 µM", "result": 0.875}, {"measurement": "relative viability", "setting": "NCI-H647; first compound 0.8 µM", "result": 1}, {"measurement": "relative viability", "setting": "NCI-H647; first compound 2.53 µM", "result": 1.17}, {"measurement": "relative viability", "setting": "PC-3 [JPC-3]; first compound 0.08 µM", "result": 0.771}, {"measurement": "relative viability", "setting": "PC-3 [JPC-3]; first compound 0.253 µM", "result": 0.726}, {"measurement": "relative viability", "setting": "PC-3 [JPC-3]; first compound 0.8 µM", "result": 0.795}, {"measurement": "relative viability", "setting": "PC-3 [JPC-3]; first compound 2.53 µM", "result": 0.728}, {"measurement": "relative viability", "setting": "RERF-LC-KJ; first compound 0.08 µM", "result": 0.996}, {"measurement": "relative viability", "setting": "RERF-LC-KJ; first compound 0.253 µM", "result": 1.2}, {"measurement": "relative viability", "setting": "RERF-LC-KJ; first compound 0.8 µM", "result": 0.887}, {"measurement": "relative viability", "setting": "RERF-LC-KJ; first compound 2.53 µM", "result": 0.976}, {"measurement": "relative viability", "setting": "SK-LU-1; first compound 0.08 µM", "result": 0.911}, {"measurement": "relative viability", "setting": "SK-LU-1; first compound 0.253 µM", "result": 0.683}, {"measurement": "relative viability", "setting": "SK-LU-1; first compound 0.8 µM", "result": 1.04}, {"measurement": "relative viability", "setting": "SK-LU-1; first compound 2.53 µM", "result": 0.781}, {"measurement": "relative viability", "setting": "SW 1573; first compound 0.08 µM", "result": 0.993}, {"measurement": "relative viability", "setting": "SW 1573; first compound 0.253 µM", "result": 0.914}, {"measurement": "relative viability", "setting": "SW 1573; first compound 0.8 µM", "result": 1.01}, {"measurement": "relative viability", "setting": "SW 1573; first compound 2.53 µM", "result": 1.04}]}
